Experimental findings from ChEMBL document CHEMBL1201862, “PubChem BioAssay data set” (2004) are described below.

Holding throughout (test): NCI tumour cell line growth inhibition, 48 h
Experiment [1] relates to NCI-H226.
Experiment [2] relates to SW-620.
In experiment [3] the test system is UACC-257.
Experiment [4] deals with HOP-62.
Experiment [5] has as its system BT-549.
In experiment [6] the test system is NCI-H23.
Experiment [7] has as its system UO-31.
Experiment [8] has as its system T47D.
Experiment [9] has as its system KM12.
For experiment [10], the system named is HL-60.
Experiment [11] relates to K562.
The test system of experiment [12] is U-251.
Experiment [13] concerns IGROV-1.
For experiment [14], the system named is HOP-92.
In experiment [15] the test system is MDA-MB-435.
Experiment [16] has as its system DU-145.
In experiment [17] the test system is EKVX.
Experiment [18] relates to HCT-15.
Experiment [19] has as its system NCI-H522.
Experiment [20] has as its system RXF 393.

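Each compound was tested at five concentrations against cells in 96-well plates for 48 hours. GI50 marks 50% less growth.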 Active and inactive are the calls of the source. Cut-off read from the data, not from the text of the source: active = GI50 up to about 1.1 µM and inactive = higher. Where a SMILES comes first, the peptide text is derived from it. [ ]: non-standard residue; d: D form. The star is where a group is joined. Phe(4-NO2) = N[CH](Cc1ccc([N+](=O)[O-])cc1)C(=O)O; Boc = CC(C)(C)OC(=O)*; OBn = c1ccc(CO*)cc1 Where only a bound is given, the exact number is not on record here.

With `CC(C)C/N=C(\N)N=C(N)N`, the GI50 in experiment [1], in [2], in experiment [3], in experiment [4], in [5] and in experiment [6] was > 100 µM (inactive) in each case. The GI50 in experiment [7], in experiment [8], in experiment [9], in [10], in experiment [11] and in [12] was > 100 µM (inactive) in each case. In addition, the GI50 in experiment [13] is > 100 µM (inactive); in experiment [14], > 100 µM (inactive); in experiment [15], > 100 µM (inactive); in [16], > 100 µM (inactive); in [17], > 100 µM (inactive); in experiment [18], greater than 100 µM. Further, the GI50 in [19] and in experiment [20] was > 100 µM (inactive) throughout.

Turning to `COC(=O)CCC(NC(=O)OC(C)(C)C)C(=O)NC(Cc1ccc([N+](=O)[O-])cc1)C(=O)NCC(=O)OCc1ccccc1` (stereo not given) (Boc-Glu(OMe)-[Phe(4-NO2)]-Gly-OBn; configuration not given here), the GI50 in [1] was > 64.1 µM (inactive); in [2] it was > 100 µM (inactive); in experiment [3], > 100 µM (inactive); in [4], 27.8 µM (inactive); in [5], 20.4 µM (inactive); in experiment [6], > 78.9 µM (inactive). Also, the GI50 was > 100 µM (inactive) in [7]; > 100 µM (inactive) in [8]; > 100 µM (inactive) in [9]; > 74.1 µM (inactive) in experiment [10]; > 100 µM (inactive) in experiment [11]; 55.3 µM (inactive) in experiment [12]. For the same compound, the GI50 is > 100 µM (inactive) in [13]; 42.4 µM (inactive) in experiment [14]; > 100 µM (inactive) in experiment [15]; > 100 µM (inactive) in experiment [16]; > 60.8 µM (inactive) in experiment [17]; greater than 100 µM in experiment [18]. Besides, the GI50 in experiment [19] is > 100 µM (inactive); in experiment [20], 26.9 µM (inactive).

Consider `COC(=O)C[C@H](CCSC)NC(=O)C[C@H](CCSC)NC(=O)C[C@H](CCSC)NC(=O)OC(C)(C)C`, for which the GI50 in experiment [1] is 41.7 µM (inactive); in [2], > 100 µM (inactive); in [3] it was 68.5 µM (inactive); in experiment [4], 39.4 µM (inactive); in experiment [5] it was 69.3 µM (inactive); in experiment [6], 47.2 µM (inactive). Besides, the GI50 was > 100 µM (inactive) in experiment [7]; 63.1 µM (inactive) in experiment [8]; > 100 µM (inactive) in [9]; 1.44 µM (inactive) in experiment [10]; > 100 µM (inactive) in experiment [11]; 19.5 µM (inactive) in [12]. Besides, the GI50 in [13] was 56.2 µM (inactive); in experiment [14] it was 16.3 µM (inactive); in [15], 39.5 µM (inactive); in experiment [16], 87.3 µM (inactive); in experiment [17], 34.8 µM (inactive); in [18], greater than 100 µM. The results for the GI50 in experiment [19] and in experiment [20] were 35.2 µM (inactive) and 16.1 µM (inactive), respectively.

Regarding `O=C(NCCN1CCCC1)c1cn2c(ccc3sc4ccccc4c(=O)c32)n1`, the GI50 in experiment [1] was 17 µM (inactive); in experiment [2], 1.51 µM (inactive); in [3], 17.7 µM (inactive); in [4] it was 11.7 µM (inactive); in [5], 17.6 µM (inactive); in experiment [6] it was 14.6 µM (inactive). The GI50 in experiment [7] is 13.3 µM (inactive); in [8], 19.6 µM (inactive); in experiment [9] it was 16.7 µM (inactive); in [10] it was 5.61 µM (inactive); in [11], 1.5 µM (inactive); in experiment [12], 16.7 µM (inactive). The GI50 in experiment [13] is 11.7 µM (inactive); in experiment [14], 15.2 µM (inactive); in experiment [15], 21 µM (inactive); in [16] it was 13.2 µM (inactive); in [17], 15.6 µM (inactive); in [18], 10.9 µM. The results for the GI50 in [19] and in experiment [20] were 10.7 µM (inactive) and 10.8 µM (inactive), respectively.

For the compound `O=C(Nc1sccc1S(=O)(=O)c1ccc(Cl)cc1)c1ccc(Cl)cc1Cl`, the GI50 was > 100 µM (inactive) in [1]; > 100 µM (inactive) in experiment [2]; 23.4 µM (inactive) in [3]; > 100 µM (inactive) in experiment [4]; > 100 µM (inactive) in experiment [5]; > 81.3 µM (inactive) in experiment [6]. Besides, the GI50 is > 100 µM (inactive) in experiment [7]; 19.1 µM (inactive) in experiment [8]; 82.2 µM (inactive) in experiment [9]; > 100 µM (inactive) in experiment [10]; > 53.3 µM (inactive) in [11]; > 78.7 µM (inactive) in experiment [12]. Further, the GI50 in [13] was > 100 µM (inactive); in experiment [14], > 93.1 µM (inactive); in [15], 14.5 µM (inactive); in experiment [16], > 100 µM (inactive); in experiment [17], > 79.4 µM (inactive); in experiment [18] it was greater than 100 µM. In addition, the values for the GI50 in experiment [19] and in experiment [20] were 34.1 µM (inactive) and > 100 µM (inactive), respectively.

As for `NCCNc1ncnc2ccc(Cl)cc12`, the GI50 in [1] is > 100 µM (inactive); in experiment [2] it was 72.3 µM (inactive); in experiment [3] it was 36 µM (inactive); in [4], > 100 µM (inactive); in experiment [5], > 100 µM (inactive); in experiment [6], > 100 µM (inactive). Also, the GI50 was 97.3 µM (inactive) in experiment [7]; > 100 µM (inactive) in experiment [8]; > 100 µM (inactive) in experiment [9]; > 100 µM (inactive) in [10]; > 100 µM (inactive) in experiment [11]; > 100 µM (inactive) in [12]. Further, the GI50 in experiment [13] was 49.9 µM (inactive); in experiment [14] it was 93.5 µM (inactive); in experiment [15] it was > 100 µM (inactive); in [16] it was > 100 µM (inactive); in [17] it was > 100 µM (inactive); in experiment [18], greater than 100 µM. Moreover, the GI50 in experiment [19] is 57.7 µM (inactive); in experiment [20], > 100 µM (inactive).

`CC1=NN(c2nc(N)nc(CCl)n2)C(C)(C)C1`: the GI50 in experiment [1] is 38.1 µM (inactive); in [2] it was 25.6 µM (inactive); in experiment [3] it was 51.9 µM (inactive); in experiment [4] it was 3.67 µM (inactive); in experiment [5], 26.7 µM (inactive); in experiment [6], 10.8 µM (inactive). The GI50 in experiment [7] was 9.02 µM (inactive); in experiment [8], 45.6 µM (inactive); in experiment [9] it was 19.3 µM (inactive); in experiment [10], 4.69 µM (inactive); in experiment [11], 27.2 µM (inactive); in experiment [12], 25.4 µM (inactive). For the same compound, the GI50 is 4.41 µM (inactive) in experiment [13]; 17.9 µM (inactive) in experiment [14]; 34.8 µM (inactive) in [15]; 35.1 µM (inactive) in experiment [16]; 12.9 µM (inactive) in [17]; 21 µM in experiment [18]. The results for the GI50 in [19] and in [20] were 1.39 µM (inactive) and > 56.8 µM (inactive), respectively.

With `O=C(Nc1ccc(Cl)c(Cl)c1)N1N=C2c3ccccc3CCC2C1c1ccc(Cl)cc1` (stereo not given), the GI50 in experiment [1], in experiment [2], in [3], in [4], in [5] and in [6] was > 100 µM (inactive) each time. Also, the GI50 in experiment [7], in experiment [8], in experiment [9], in [10], in experiment [11] and in [12] was > 100 µM (inactive) each time. Also, the GI50 in [13] was 3.01 µM (inactive); in experiment [14], > 100 µM (inactive); in [15], > 100 µM (inactive); in experiment [16], > 100 µM (inactive); in experiment [17], > 100 µM (inactive); in experiment [18], greater than 100 µM. The GI50 in experiment [19] and in experiment [20] was > 100 µM (inactive) each time.

On to `Nc1ncnc2c1ncn2CCCNO`, for which the GI50 in experiment [1], in experiment [2], in [3], in [4], in experiment [5] and in experiment [6] was > 100 µM (inactive) each time. In addition, the GI50 in [7], in [8], in experiment [9], in experiment [10], in experiment [11] and in experiment [12] was > 100 µM (inactive) throughout. The GI50 in [13] was > 100 µM (inactive); in experiment [14] it was > 100 µM (inactive); in experiment [15], > 100 µM (inactive); in experiment [16], > 100 µM (inactive); in experiment [17] it was > 100 µM (inactive); in experiment [18] it was greater than 100 µM. In addition, the GI50 in experiment [19] and in experiment [20] was > 100 µM (inactive) each time.

For the compound `COc1cc(C2SCC(=O)N2c2ccc(Cl)c(Cl)c2)cc(OC)c1OC` (stereo not given), the GI50 in [1] was > 37 µM (inactive); in experiment [2] it was 48 µM (inactive); in experiment [3], 32.6 µM (inactive); in experiment [4], 24.2 µM (inactive); in experiment [5], 44.7 µM (inactive); in experiment [6], 69.5 µM (inactive). The GI50 is 18.9 µM (inactive) in experiment [7]; 10.6 µM (inactive) in [8]; 12.7 µM (inactive) in experiment [9]; 19.5 µM (inactive) in experiment [10]; 1.28 µM (inactive) in [11]; 47.3 µM (inactive) in experiment [12]. Moreover, the GI50 in experiment [13] is > 82.6 µM (inactive); in experiment [14], 80.9 µM (inactive); in experiment [15], 11.1 µM (inactive); in experiment [16], > 38.5 µM (inactive); in experiment [17] it was 25.5 µM (inactive); in [18] it was 20.6 µM. Besides, the GI50 was 22.1 µM (inactive) in experiment [19] and 18.5 µM (inactive) in experiment [20].
